Assay results: ChEMBL document CHEMBL1799939, “Synthesis and biological evaluation of novel thiazolidinedione analogues as 15-hydroxyprostaglandin dehydrogenase inhibitors” (J Med Chem, 2011)
One block for each molecule: values may come before it. Activity calls are given as the source filed them. The rule behind the calls is not given here.

Experiments:
[1] = target: T1, 15-hydroxyprostaglandin dehydrogenase [NAD(+)] (Homo sapiens) (UniProt P15428); test: Inhibition of human 15-PGDH in human A549 cells assessed as increase in IL1-beta stimulated PGE2 production at 5 uM after 5 hrs by enzyme immunoassay; format: cell-based
T1 sequence (whole entry): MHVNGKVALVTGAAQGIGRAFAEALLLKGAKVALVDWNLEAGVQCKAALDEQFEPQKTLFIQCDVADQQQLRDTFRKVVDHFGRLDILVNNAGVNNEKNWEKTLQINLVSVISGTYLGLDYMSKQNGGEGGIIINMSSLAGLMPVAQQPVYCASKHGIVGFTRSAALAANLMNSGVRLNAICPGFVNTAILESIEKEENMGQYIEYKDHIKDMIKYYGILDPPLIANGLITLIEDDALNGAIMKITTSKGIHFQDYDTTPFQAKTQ

[2] = target: T2, 15-hydroxyprostaglandin dehydrogenase [NAD(+)] (Homo sapiens, UniProt P15428); test: Inhibition of human 15-PGDH expressed in Escherichia coli using PGE2 as substrate and NAD+ as coenzyme assessed as formation of NADH by spectrophotometric analysis
T2 sequence (P15428 whole entry): T1 sequence (whole entry)

HaCaT = test: Wound healing activity in human HaCaT cells assessed as re-epithelialization at 5 uM after 48 hrs by inverted microscopic analysis relative to control; format: functional, cell-based
[3] = target: T1, 15-hydroxyprostaglandin dehydrogenase [NAD(+)] (Homo sapiens); test: Inhibition of human 15-PGDH in human A549 cells assessed as increase in IL1-beta stimulated PGE2 production after 5 hrs by enzyme immunoassay; format: cell-based
A549 [4] = test: Inhibition of COX1 expression in human A549 cells at 5 uM after 25 hrs by RT-PCR analysis; format: functional, cell-based
A549 [5] = test: Induction of PGT expression in human A549 cells at 5 uM after 25 hrs by RT-PCR analysis; format: functional, cell-based
A549 [6] = test: Effect on COX2 expression in human A549 cells at 5 uM after 25 hrs by RT-PCR analysis; format: functional, cell-based
A549 [7] = test: Effect on MRP4 expression in human A549 cells at 5 uM after 25 hrs by RT-PCR analysis; format: functional, cell-based
Cavia porcellus [8] = test: Increase in cochlear blood flow in guinea pig at 10 ug, iv measured after 40 mins; format: functional
Cavia porcellus [9] = test: Increase in cochlear blood flow in guinea pig at 20 ug, iv measured after 50 mins; format: functional

Compound: COc1cc(/C=C2\SC(=O)N(C)C2=O)ccc1OCCC1CCCCC1
- Activity [3]: Dose-dependent effect
- IC50 [2]: > 50000 nM

Compound: O=C1NC(=O)/C(=C/c2ccc(OC3CCCCC3)c(Cl)c2)S1
- IC50 [2]: 47 nM

Compound: O=C1N=C(O)S/C1=C\c1ccc(OCCC2CCCCC2)cc1
- Activity [1]: Active

Compound: O=C1NC(=O)/C(=C/c2ccc(OCC3CCCCC3)c(Cl)c2)S1
- IC50 [2]: 28 nM

Continued by falling IC50 [2], values first:

- Activity [3]: Dose-dependent effect
- Activity [1]: Active
- IC50 [2]: 25 nM
Compound: COc1cc(/C=C2\SC(=O)NC2=O)ccc1OCCC1CCCCC1
- Activity (Cavia porcellus [8]): 22%
- Activity (Cavia porcellus [9]): 65%
- Activity (A549 [4]): Active
- Activity (A549 [5]): Active
- Activity (A549 [6]): inactive
- Activity (A549 [7]): inactive

- IC50 [2]: 24 nM
Compound: O=C1N=C(O)S/C1=C\c1ccc(OCCCCC2CCCCC2)c(Cl)c1

- Activity [1]: Active
- IC50 [2]: 19 nM
Compound: O=C1N=C(O)S/C1=C\c1ccc(OCCC2CCCCC2)c(Br)c1
- Activity (HaCaT): Active

- IC50 [2]: 10 nM
Compound: O=C1N=C(O)S/C1=C\c1ccc(OCCCC2CCCCC2)c(Cl)c1

- Activity [1]: Active
- IC50 [2]: 8 nM
Compound: O=C1N=C(O)S/C1=C\c1ccc(OCCC2CCCCC2)c(Cl)c1
- Activity (A549 [4]): Active
- Activity (A549 [5]): Active
- Activity (A549 [6]): inactive
- Activity (A549 [7]): inactive
